Experimental data from patent US7396643B2, “Method for the screening, the detection and/or the quantification of transcriptional factors” (Eppendorf Array Technologies, S.A., priority 2000, dated 2008).

Experiments:
Type in all cases: cell-based
AP-1 = test: Microwell colorimetric DNA-binding assay, AP-1 (anti-c-fos); conditions: nuclear extracts of WI-38 VA13 cells stimulated 30 min, 0.1 μg/ml PMA + 1 μM ionomycin, FIG. 2C
From the text: Step 1: Binding of the Double Strand Oligonucleotidic Probe on Multi-well Plates
The spacer double strand nucleotide sequences were constructed from the following CMV sequence: • 5′[…] (SEQ ID NO:146) acting as a spacer was linked to a) the NFκB consensus oligonucleotide 5′[…]-3′ (SEQ ID NO:147) b) the CREB consensus oligonucleotide 5′[…]-3′ (SEQ ID NO:148) and c) the AP-1 consensus oligonucleotide 5′[…]-3′ (SEQ ID NO:149). In the example the spacer was of 100 based pairs. […] Plates are then washed and the amount of DNA fixed on streptavidin-coated plates was quantified using the picogreen assay (Molecular Probes, OR, USA). […]
• cells were rinsed with cold PBS150 • cells were left swollen during 3 min in a cold hypotonic buffer (20 mM Hepes pH 7.4, 5 mM NaF, 1 mM Na2MoO4, 0.1 mM EDTA). • Cells were scrapped in 0.5 ml of hypotonic buffer containing 0.2% nonidet P40 and immediately centrifuged during 30 sec at maximal speed (13000 rpm). • The pellet was resuspended in 100 μl of lysis buffer (hypotonic buffer containing 20% glycerol, 0.4 M NaCl, phosphatases and proteases inhibitors cocktail). • The nuclear extract was agitated 30 min at 4° C., and then centrifuged for 10 min at maximal speed (13000 rpm) at 4° C. • The supernatant (=nuclear extract) was frozen at −80° C. and its proteic content was determined by the Bradford assay. […]

NFκB = test: Microarray assay for DNA-binding activity of NFκB in nuclear cell extracts; conditions: nuclear extracts of WI-38 VA 13 fibroblasts; anti-p50, gold-labelled second antibody, silver; unstimulated cells gave 10
Method: Step 1: Binding of the Probes on Glass
Activated glass slides bearing aldehyde groups were purchased from AAT (Belgium).
The slides were first incubated in 0.8 ml of a 50 μg/ml streptavidin solution in a 10 mM phosphate buffer (pH 7.4) containing 10 mM NaCl (PBS10 buffer). After 1 h incubation at 20° C., the plates were washed 3 times for 2 min in PBS150 containing 0.02% Tween 20 and then 2 times 2 min with water. The plates were then incubated for 2 h at 20° C. in 20 ml of PBS150 solution containing 10% non fat dried milk and then washed 5 times 2 min in PBS150 solution.
Spotting was performed with the NFκB consensus probe or with the CREB consensus probe as in example 1. The capture probes were printed onto the microscopic slides with a home made robotic device. 250 μm pins from Genetix (UK) were used. The spots have an average of 400 μm in diameter and the volume dispensed is about 1 nl. The concentration of probes used was 3000 nmolaire. […]
There was no signal for the negative control, while in nuclear cell extracts, activated NFκB is detectable in cell stimulated with IL-1, with a much higher intensity than in unstimulated. The results obtained with the nuclear cell extracts have been quantitated, using a calorimetric microarray reader including the quantification software (AAT, Namur, Belgium). […]

CREB = test: Microarray assay of P-CREB, influence of the spacer; conditions: whole cell lysates of WI-38 VA 13 fibroblasts, 10 μg/ml forskolin
Method: Step 1: Binding of the Probes on Glass.
The binding of probes was obtained as described in the example 3 using the consensus sequence of NF-KB or CREB alone or with a spacer of 50, 100, 150 and 250 bp constructed from the sequence given in example 1.
Step 2 :Binding of NFκB on the Double Strand Probe Fixed on Micro-array
This assay was performed with whole cell lysates from WI-38 VA 13 fibroblasts stimulated with IL-1β (a NFκB activator) or 10 μg/ml of forskolin(to activate CREB). The control was 20 μl of lysis buffer mixed with 30 μl of binding buffer.
Steps 3, 4 and 5: Binding of Antibodies and Detection
The binding of the primary anti-NFκB and anti-PCREB antibodies was then used for reaction on the factors followed by a second gold labelled antibody and a calorimetric detection as in example 3. […] The values for P-CREB with unstimulated cells were 5.5 and 4 respectively with no spacer and with a 100 base spacer. The values for stimulated cells were respectively of 7 and 21 respectively with no spacer and a spacer of 100 bases pairs.

CCCCCCCCCCCCCC(=O)O[C@@H]1[C@@H](C)[C@@]2(O)[C@@H](C=C(CO)C[C@]3(O)C(=O)C(C)=C[C@@H]23)[C@@H]2C(C)(C)[C@]12OC(C)=O [PNA]
signal obtained for the assay of c-fos (AP-1) (AP-1): strongly induced

IL-1: a NFκB activator used to stimulate cells
spot intensity for activated NFκB, stimulated cells (NFκB): 175 grey intensity

C=C[C@@]1(C)CC(=O)[C@]2(O)[C@@]3(C)[C@@H](O)CCC(C)(C)[C@@H]3[C@H](O)[C@H](OC(C)=O)[C@@]2(C)O1 [forskolin]
value for P-CREB, stimulated cells, spacer of 100 base pairs (CREB; probe with 100 bp spacer, unstimulated cells gave 4): 21
value for P-CREB, stimulated cells, no spacer (CREB; probe with no spacer, unstimulated cells gave 5.5): 7
